No end group written: not given here.
How the values were obtained:
[1] = cited from earlier work
Excerpt: A study by Haney determined the aggregation properties of the innate defence regulator (IDR) peptides 1018, 1002 and HH2 in different media such as salts and serum. These IDR peptides are synthetic analogues to natural host defence peptides (HDPs) found in organisms. […] Second-generation peptides are synthetically rearranged IDRs that are created to combat unwa ...

[2] = tested on: Escherichia coli (ATCC 25922); format: cell-based; conditions: ATCC 25922, 48 h
Protocol: (§1) A range of bacterial species with the potential to be transferred to developing fish larvae as pathogens or probiotics were selected for use in the study (Table 2). Bacterial isolates were stored at −80 °C and thawed, and 25 µL of the isolates was spread onto marine salt agar (MSA) media. All isolates were incubated at 25 °C for 18 h to reach mid-log growth phase. All isolates were sub-cultured and identified using mass spectrometry (MALDI-TOF) using the BioTyper and MBT 8468 library (Bruker Pty Ltd). The isolate Tenacibaculum discolor was plated on Anacker and Oradal’s marine (AOM) media, incubated for 48 h and identified using the aforementioned method. Bacterial isolates were suspended in sterile saline (0.75% NaCl w/v) to 0.5 McFarland standard. […] The bacterial isolates T. discolor and Pseudoalteromonas sp. require marine salts to grow and were not added to MHB (0‰). The isolate T. discolor requires low nutrients to grow, therefore, a separate MHB (25‰) was prepared at a diluted ratio of 1 part MHB and 7 parts artificial seawater (25‰).
(§2) The protocol was followed to determine the minimum inhibitory concentration (MIC) of the selected peptides. Two MIC assays were performed, firstly to determine whether each peptide precipitated in MHB and thereby required acetic acid adjustments (supplementary materials) and secondly, to determine the antimicrobial activity of each peptide in artificial seawater (25‰). Peptide stock solutions (1.3 mg mL^−1) were made by diluting the peptides in sterile deionised water. MHB was made with deionised water to reach a concentration of approaching 0‰ and artificial sea salts (Sigma-Aldrich® S9883) to reach a salinity of 25‰.
(§3) Once the acetic acid requirement for each peptide was determined (Table 3), the antimicrobial activity of each peptide was tested at a salinity of 0‰ and 25‰ for all bacterial isolates. A stock solution for peptides that required acetic acid was prepared by a 1:2 dilution in acetic acid (0.02% acetic acid w/v, containing 0.4% BSA) solution. In a 96-well polypropylene microtitre plates (Costar® 3879), 100 µL of this peptide stock was added to the first well for each bacterial isolate tested and serially diluted twofold with acetic acid (0.01% acetic acid w/v, containing 0.2% BSA). From each well, 10 µL of each peptide concentration was added to the corresponding wells of a new 96-well microtitre plate. From each of the bacterial suspensions (0‰), 90 µL was added to each well. […] Twofold serial dilutions were made with MHB (0‰). From each of the bacterial suspensions (0‰), 50 µL was added to each well. The same method was followed for testing peptides in MHB at 25‰. All peptide concentrations ranged from 0.125 to 65 µg mL^−1, and the bacterial suspension in each well was approximately 5 × 10^5 CFU mL^−1. The different salinities were used to compare any differences in antimicrobial activity in 0‰ and 25‰ water. […] Each bacterium was trialled in duplicate.

Vibrio harveyi [3] = format: cell-based; conditions: 48 h
Protocol: as §1, §2, §3

Pseudoalteromonas sp. = format: cell-based; conditions: 48 h
Protocol: as §1, §2, §3

Vibrio alginolyticus [4] = format: cell-based; conditions: 48 h
Protocol: as §1, §2, §3

Vibrio scophthalmi [5] = format: cell-based; conditions: 48 h
Protocol: as §1, §2, §3

Vibrio rotiferianus [6] = format: cell-based; conditions: 48 h
Protocol: as §1, §2, §3

Tenacibaculum discolor = format: cell-based; conditions: 48 h
Protocol: as §1, §2, §3

Shewanella sp. [7] = format: cell-based; conditions: 48 h
Protocol: as §1, §2, §3

[8] = tested on: Vibrio harveyi (ATCC 35084); format: cell-based; conditions: ATCC 35084, 48 h
Protocol: as §1, §2, §3

bacterial isolates = format: cell-based; conditions: 18 h
Protocol: as §1, §2
Once the acetic acid requirement for each peptide was determined (Table 3), the antimicrobial activity of each peptide was tested at a salinity of 0‰ and 25‰ for all bacterial isolates. A stock solution for peptides that required acetic acid was prepared by a 1:2 dilution in acetic acid (0.02% acetic acid w/v, containing 0.4% BSA) solution. In a 96-well polypropylene microtitre plates (Costar® 3879), 100 µL of this peptide stock was added to the first well for each bacterial isolate tested and serially diluted twofold with acetic acid (0.01% acetic acid w/v, containing 0.2% BSA). From each well, 10 µL of each peptide concentration was added to the corresponding wells of a new 96-well microtitre plate. From each of the bacterial suspensions (0‰), 90 µL was added to each well. […] Twofold serial dilutions were made with MHB (0‰). From each of the bacterial suspensions (0‰), 50 µL was added to each well. The same method was followed for testing peptides in MHB at 25‰. All peptide concentrations ranged from 0.125 to 65 µg mL^−1, and the bacterial suspension in each well was approximately 5 × 10^5 CFU mL^−1. […]

[9] = tested on: Escherichia coli (ATCC 25922); format: cell-based; conditions: ATCC 25922, 48 h; remark: listed apart in the source
Protocol: as §1, §2
(§4) A broth microdilution protocol was followed to test whether the AMPs precipitated in MHB. The isolates T. discolor and Pseudoalteromonas were excluded from this assay because they required marine salts for growth. The peptides HHC10 and HHC36 previously required acetic acid adjustments according to [63] and were not trialled in this assay. To test if peptides required acetic acid, each peptide was diluted 1:2 in acetic acid (0.02% acetic acid w/v, containing 0.4% BSA) solution. In a 96-well polypropylene microtitre plates (Costar® 3879), 100 µL of this peptide stock was added to the first well for each bacterial isolate tested and serially diluted 2-fold with acetic acid (0.01% acetic acid w/v, containing 0.2% BSA). From each well, 10 µL of each peptide concentration was added to the corresponding wells of a new 96-well microtitre plate. From each of the bacterial suspensions in MHB (0‰), 90 µL was added to each well. […] From each of the bacterial suspensions in MHB (0‰), 50 µL was added to each well. All peptide concentrations ranged from 0.125 - 65µg mL^-1 and the bacterial suspension in each well was approximately 5 × 10^5 CFU mL^-1. Antimicrobial peptides that have an MIC value two or more dilutions higher in the assay with no acetic acid, compared to the assay with acetic acid, require acetic acid adjustments. The 96-well plates were incubated at 25 °C and read at 24 and 48 hours. The MIC was visually determined using a Sensititre™ Vizion™ Digital MIC Viewing System (Thermo Scientific™), and the lowest AMP concentration that had no bacterial growth was recorded as the MIC after 48 hours. Each bacterium was trialled in duplicate.

Vibrio harveyi [10] = format: cell-based; conditions: 48 h; remark: listed apart in the source
Protocol: as §1, §2, §4

Vibrio alginolyticus [11] = format: cell-based; conditions: 48 h; remark: listed apart in the source
Protocol: as §1, §2, §4

Vibrio scophthalmi [12] = format: cell-based; conditions: 48 h; remark: listed apart in the source
Protocol: as §1, §2, §4

Vibrio rotiferianus [13] = format: cell-based; conditions: 48 h; remark: listed apart in the source
Protocol: as §1, §2, §4

Shewanella sp. [14] = format: cell-based; conditions: 48 h; remark: listed apart in the source
Protocol: as §1, §2, §4

[15] = tested on: Vibrio harveyi (ATCC 35084); format: cell-based; conditions: ATCC 35084, 48 h; remark: listed apart in the source
Protocol: as §1, §2, §4

Substance | cytotoxicity [1] | MIC E. coli ATCC 25922, salinity 0‰ [2] | MIC E. coli ATCC 25922, salinity 25‰ [2] | MIC V. harveyi, salinity 0‰ (Vibrio harveyi [3]) | MIC V. harveyi, salinity 25‰ (Vibrio harveyi [3]) | MIC Pseudoalteromonas sp., salinity 25‰ (Pseudoalteromonas sp.) | MIC V. alginolyticus, salinity 0‰ (Vibrio alginolyticus [4]) | MIC V. alginolyticus, salinity 25‰ (Vibrio alginolyticus [4]) | MIC V. scophthalmi, salinity 0‰ (Vibrio scophthalmi [5]) | MIC V. scophthalmi, salinity 25‰ (Vibrio scophthalmi [5]) | MIC V. rotiferianus, salinity 0‰ (Vibrio rotiferianus [6]) | MIC V. rotiferianus, salinity 25‰ (Vibrio rotiferianus [6]) | MIC T. discolor, salinity 25‰ (Tenacibaculum discolor) | MIC Shewanella sp., salinity 0‰ (Shewanella sp. [7]) | MIC Shewanella sp., salinity 25‰ (Shewanella sp. [7]) | MIC V. harveyi ATCC 35084, salinity 0‰ [8] | MIC V. harveyi ATCC 35084, salinity 25‰ [8] | MIC against the probiotic strains, low salt (bacterial isolates) | MIC E. coli ATCC 25922, Acetic [9] | MIC E. coli ATCC 25922, No acetic [9] | further results
KWRLLIRWRIQK [Peptide 2009] | caused cytotoxicity | 2.03 µg/mL | > 65 µg/mL | 1.02 µg/mL | > 65 µg/mL | > 65 µg/mL | 1.02 µg/mL | 65 µg/mL | < 0.13 µg/mL | 32.5 µg/mL | 0.13 µg/mL | 32.5 µg/mL | > 65 µg/mL | 0.51 µg/mL | > 65 µg/mL | 1.02 µg/mL | > 65 µg/mL | 0.13 to 0.25 µg/mL | 2.03 µg/mL | 2.03 µg/mL | MIC V. harveyi, Acetic (Vibrio harveyi [10]): 1.02 µg/mL; MIC V. harveyi, No acetic (Vibrio harveyi [10]): 1.02 µg/mL; MIC V. alginolyticus, Acetic (Vibrio alginolyticus [11]): 1.02 µg/mL; MIC V. alginolyticus, No acetic (Vibrio alginolyticus [11]): 1.02 µg/mL; MIC V. scophthalmi, Acetic (Vibrio scophthalmi [12]): 0.13 µg/mL; MIC V. scophthalmi, No acetic (Vibrio scophthalmi [12]): 0.51 µg/mL; MIC V. rotiferianus, Acetic (Vibrio rotiferianus [13]): 0.13 µg/mL; MIC V. rotiferianus, No acetic (Vibrio rotiferianus [13]): 1.02 µg/mL; MIC Shewanella sp., Acetic (Shewanella sp. [14]): 0.25 µg/mL; MIC Shewanella sp., No acetic (Shewanella sp. [14]): 1.02 µg/mL; MIC V. harveyi ATCC 35084, Acetic [15]: 1.02 µg/mL; MIC V. harveyi ATCC 35084, No acetic [15]: 1.02 µg/mL
RRWIVKVRIRRR-NH2 [Peptide 2008] | caused cytotoxicity | 4.06 µg/mL | > 65 µg/mL | 1.02 µg/mL | > 65 µg/mL | 65 µg/mL | 0.13 µg/mL | 65 µg/mL | 0.25 µg/mL | 65 µg/mL | 0.25 µg/mL | 65 µg/mL | > 65 µg/mL | 0.51 µg/mL | 65 µg/mL | 1.02 µg/mL | > 65 µg/mL | 0.13 to 0.25 µg/mL | 2.03 µg/mL | 4.06 µg/mL | MIC V. harveyi, Acetic (Vibrio harveyi [10]): 1.02 µg/mL; MIC V. harveyi, No acetic (Vibrio harveyi [10]): 1.02 µg/mL; MIC V. alginolyticus, Acetic (Vibrio alginolyticus [11]): 0.51 µg/mL; MIC V. alginolyticus, No acetic (Vibrio alginolyticus [11]): 1.02 µg/mL; MIC V. scophthalmi, Acetic (Vibrio scophthalmi [12]): 0.13 µg/mL; MIC V. scophthalmi, No acetic (Vibrio scophthalmi [12]): 0.25 µg/mL; MIC V. rotiferianus, Acetic (Vibrio rotiferianus [13]): 0.25 µg/mL; MIC V. rotiferianus, No acetic (Vibrio rotiferianus [13]): 1.02 µg/mL; MIC Shewanella sp., Acetic (Shewanella sp. [14]): 0.13 µg/mL; MIC Shewanella sp., No acetic (Shewanella sp. [14]): 0.51 µg/mL; MIC V. harveyi ATCC 35084, Acetic [15]: 1.02 µg/mL; MIC V. harveyi ATCC 35084, No acetic [15]: 1.02 µg/mL

From publication PMC9246773, “Assessing the Activity of Antimicrobial Peptides Against Common Marine Bacteria Located in Rotifer (Brachionus plicatilis) Cultures” (Probiotics and Antimicrobial Proteins, 2022)
